In patent publication US11413267B2, “Methods and compositions for inhibition of ATR and FANCD2 activation” (priority 2012, dated 2022):

Assays:
CHO cells = experiment: In vitro chromosome aberration test; assay type: cell-based, Chinese Hamster; conditions: 2.00 μM
Method: To test this hypothesis, we investigated the cytogenetic effect of Protoapigenone (I-1) on CHO cells (FIG. 1).
In brief, 5×10^5 Chinese Hamster Ovary (CHO) cells were seeded in 60-mm dishes 1 d before the experiment. Protoapigenone (I-1)-induced structural chromosomal changes after 20 h were compared with that of the cells cultured in 2 μM mitomycin C. At 18 h after Protoapigenone (I-1), 0.1 μg/mL colchicine was added for 2 h, and metaphase cells were collected by shaking them off the dishes. Mitotic cells were treated with 0.5% KCl for 10 min and fixed with a 3:1 mixture of methanol: glacial acetic acid. The cells were then spread on slides for chromosome staining with 5% Giemsa solution. We then analyzed the chromosome structure of 200 well-spread metaphase cells (100 metaphase cells/experiment) under a 100× oil immersion objective.

MDA-MB-231 cells = experiment: Mitotic entry assay (phospho-histone H3 Ser10, nocodazole trap, flow cytometry); assay type: cell-based, human
Excerpt: Of these, the G2/M checkpoint involves ATM and ATR in collaboration, whereas the S/M checkpoint is mediated solely by ATR. To maintain genetic integrity, ATR can prevent premature mitotic entry in the event of incomplete DNA replication or unrepaired DNA damage. In order to evaluate the effect of benzopyran-4-one derivatives on these ATR-associated DNA damage checkpoints, we observed the effect of benzopyran-4-one derivatives on mitotic entry following hydroxyurea or cisplatin treatment.
(§1) DNA replication was measured using a Click-it EdU assay kit, which is based on incorporation of the thymidine analogue 5-ethynyl-2′-deoxyuridine (EdU) into DNA during replication (Invitrogen). Then, 10 μM EdU was added to the cell culture medium 30 min before the cells were harvested and fixed in 4% paraformaldehyde. After cycloaddition, EdU was detected with Alexa Fluor 647 using click reaction catalyzed by Cu (II), and the DNA content was stained by CellCycle 405-blue. To assay the mitotic entry, cells were treated with the indicated drugs and trapped in 70 nM nocodazole for 16 h, and antibodies against phospho-histone H3 Ser10 and PI were used to stain the mitotic cells and DNA content, respectively. An FITC Annexin V apoptosis detection kit was used to characterize the phenotype of cell death based on PI and Annexin V double staining (BD Pharmingen, San Diego, Calif.). Fluorescence-labeled cells were subsequently analyzed by the BD LSR II flow cytometer with a suitable selection of excitation and emission wavelengths. The percentages of different fluorescent cells were analyzed using WinMDI Ver. 2.9.

[1] = system: ATR-dependent Chk1 phosphorylation; experiment: Immunoblot of DNA damage-induced Chk1 phosphorylation; assay type: cell-based, human; conditions: after H2O2 damage
Excerpt: (§2) We hypothesized that genes with functions associated with DNA damage checkpoints and/or DNA repair might be targeted by benzopyran-4-one derivatives. To test this hypothesis, we assessed the effects of benzopyran-4-one derivatives on DDR induced by H2O2. […] In response to DNA double-strand breaks (DSBs), FANCD2 is known to be monoubiquitinated on K561 (FANCD2-Ub) in an ATR-dependent manner to stimulate repair (Andreassen P R, et al. Genes Dev 2004).
(§3) To elucidate the specificity of the benzopyran-4-one derivatives inhibition on ATR-mediated signaling, we compared the change between cells treated with benzopyran-4-one derivatives or the ATM-specific inhibitor KU55933 before the induction of DDR.
(§4) MDA-MB-231 (breast adenocarcinoma; ATCC HTB-26, BCRC 60425) and A549 (lung adenocarcinoma; ATCC CCL-185, BCRC 60074) human cell lines were purchased from Bioresource Collection and Research Center (BCRC, Hsinchu, Taiwan), and were authenticated by American Type Culture Collection (ATCC, Manassas, Va.). U2OS (osteosarcoma), HeLa (cervical adenocarcinoma), and HEK 293T (embryonic kidney cells) human cell lines were provided by Dr. Sheau-Yann Shieh (Institute of Molecular Biology, Academia Sinica, Taipei, Taiwan). Cells were maintained in Dulbecco's modified Eagle's medium (DMEM, Sigma-Aldrich) supplemented with 10% fetal bovine serum (FBS) (Gibco). […] For UV irradiation treatment, the cells were irradiated for 10 J/m^2 by a cross-linker (UVP) 1 h prior to analysis.
(§5) Cell lysate preparations, gel electrophoresis, and immunoblotting were performed as previously described (23). The binding of primary antibodies were detected by horseradish peroxidase-coupled secondary antibodies (Jackson ImmunoResearch) followed by enhanced chemiluminescence (ECL) (Millipore). The images of non-saturated bands were captured using a luminescent image analyzer (LAS-4000 mini; Fujifilm). The antibodies used in this study are listed in supplementary materials.

[2] = system: ATM-mediated Chk2 phosphorylation; experiment: Immunoblot of DNA damage-induced Chk2 phosphorylation / ATM autophosphorylation; assay type: cell-based, human; conditions: after H2O2 damage
Excerpt: as §2, §3, §4, §5

DNA replication = experiment: EdU incorporation assay of DNA replication; assay type: cell-based; conditions: 10 μM
Method: as §1, with “5-ethynyl-2'-deoxyuridine” for “5-ethynyl-2′-deoxyuridine”, “To assay the mitotic entry, cells were treated with the indicated drugs and trapped in 70 nM nocodazole for 16 h, and antibodies against phospho-histone H3 Ser10 and PI were used to stain the mitotic cells and DNA content, respectively.” left out

[3] = DNA-damaging agent alone (Control group column)

Question: Which results are given for CO[C@@]12[C@H](COC(N)=O)C3=C(C(=O)C(C)=C(N)C3=O)N1C[C@@H]1N[C@@H]12 [Mitomycin C, reference compound]?
Answer: Chromatid break (No.) (CHO cells; 200 cells per treatment): 2 No.; Chromatid deletion (CHO cells; 200 cells per treatment): 3 No.; Complex rerrangement (CHO cells; 200 cells per treatment): 2 No.; Dicentric (CHO cells; 200 cells per treatment): 1 No.; Polyploid (CHO cells; 200 cells per treatment): 0 No.; Pulverized cell (CHO cells; 200 cells per treatment): 5 No.; Quadriradial (CHO cells; 200 cells per treatment): 29 No.; Ring (CHO cells; 200 cells per treatment): 0 No.; Triradial (CHO cells; 200 cells per treatment): 42 No.; Average aberrant metaphases (%) (CHO cells; * significant vs. control by t-test): 42.0 * %

Question: Which “The percentage of mitotic cells” value (MDA-MB-231 cells; [3]) does the source give for N.N.[Cl][Pt][Cl] [Cisplatin] here?
Answer: Its value is 5.35 ± 0.07%.

Question: What does the source list for O=c1cc(-c2cccc3c2Sc2ccccc2S3)oc(N2CCOCC2)c1 [KU55933]?
Answer: Effect on ATR-mediated Chk1 phosphorylation [1]: small; ATM-mediated Chk2 phosphorylation [2]: strongly inhibited; Percentage of mitotic cells in cisplatin-treated cells (G2/M checkpoint), in words (MDA-MB-231 cells; cisplatin-treated cells): increased the percentage of mitotic cells; The percentage of mitotic cells (MDA-MB-231 cells; compound alone (Control group, no DNA-damaging agent)): 20.29 ± 1.48%; The percentage of mitotic cells (MDA-MB-231 cells; compound with Cisplatin (G2/M checkpoint)): 9.70 ± 0.25%; The percentage of mitotic cells (MDA-MB-231 cells; compound with Hydroxyurea (S/M checkpoint)): 11.19 ± 0.76%; Percentage of EdU incorporation compared with control group (DNA replication): not

Question: With NC(=O)NO [Hydroxyurea] as the compound, how does the “The percentage of mitotic cells” value (MDA-MB-231 cells; [3]) read?
Answer: Its value is 4.46 ± 0.67%.
